From patent US20020019332A1, “METHOD OF INDUCING APOPTOSIS IN B-LYMPHOCYTES” (priority 1999, published 2002)

Key:
mature B cells = test: Apoptosis assay (propidium iodide flow cytometry) in mature B cells; format: cell-based, mouse; settings: inhibitor added 15 minutes before stimulation with anti-Ig
Experimental: Purified populations of either immature B cells obtained from the spleens of day 14 autoreconstituting mice or mature B cells isolated from spleens of normal adult mice were incubated in the absence or presence of 50 μg/ml of rabbit anti-mouse IgM F(ab′)2 fragments (anti-Ig) for 16-18 hours. […] Similar results were observed using a modified TUNEL technique that detects nicked DNA.
The role of PKC in preventing BCR-induced apoptosis of immature B cells was also examined using inhibitors of PKC.
Purified B cells were cultured under various conditions overnight in either sterile 2 ml click-cap tubes or 96-well plates. PKC inhibitors were added 15 minutes before the addition of the stimulant. After 14-18 hours in the case of immature B cells or 24 hours in the case of mature B cells, the cells were harvested and washed in PBS containing 2% FCS. Cells were fixed and permeabilized by resuspending in 70% ethanol made in 1xPBS and incubating at −20° C. for at least 2 hours. […] The cells were stained at 4° C. overnight and analyzed by flow cytometry on a Becton Dickinson FACScan using LYSYS II software. The mean percentages of apoptotic cells and the standard errors for each culture condition were determined and significance was assessed by the Student's t-test.

immature B cells = test: Apoptosis assay (relative DNA content, propidium iodide flow cytometry) in immature B cells; format: cell-based, mouse; settings: late-stage immature B cells, 18 hours, anti-IgM F(ab′)2 50 μg/ml plus phorbol ester (PMA 10 ng/ml)
Experimental: Experiments were performed using an in vitro model system that makes use of an immature population of B cells purified from the spleens of adult mice after sublethal irradiation. Immature B cells obtained from these autoreconstituting mice are phenotypically immature and respond identically to immature B cells purified from either […] bone marrow (Norvell, A. et al. 1995. J. Immunol. 154:4404; Norvell, A. and J. G. Monroe. 1996. J. Immunol. 156:1328). This homogeneous population of immature B cells is devoid of pre-B cells and mature B cells found in neonatal spleen and adult bone marrow, respectively. Further, unlike the immature B cells purified from either bone marrow or neonatal spleen, immature B cells from autoreconstituting mice can be isolated without positive selection on anti-Ig panning plates. Since large numbers of unmanipulated immature B cells can be obtained, autoreconstituting B cells are an ideal system for analyzing biochemical events responsible for tolerogenic signal transduction. The B cells isolated from these mice represent a transitional stage of development in which cells are subject to negative selection. This in vitro system uses apoptosis as an indicator of negative selection.
Purified populations of either immature B cells obtained from the spleens of day 14 autoreconstituting mice or mature B cells isolated from spleens of normal adult mice were incubated in the absence or presence of 50 μg/ml of rabbit anti-mouse IgM F(ab′)2 fragments (anti-Ig) for 16-18 hours. […]
The ability of PMA to protect immature B cells from BCR-induced apoptosis was assessed in the presence of the same two inhibitors. […]
Purified B cells were cultured under various conditions overnight in either sterile 2 ml click-cap tubes or 96-well plates. […] The cells were stained at 4° C. overnight and analyzed by flow cytometry on a Becton Dickinson FACScan using LYSYS II software. The mean percentages of apoptotic cells and the standard errors for each culture condition were determined and significance was assessed by the Student's t-test.

[1] = test system: PKC-depleted mature B cells; test: Modified TUNEL analysis of PKC-depleted mature B cells; format: cell-based, mouse
Experimental: To assess the role of PKC activation in the prevention of antigen-mediated apoptosis, the ability of anti-Ig to induce apoptosis in PKC-depleted mature B cells was determined. […] After overnight treatment, the cells were washed expansively and subjected to an apoptotis analysis in which B cells were recultured with medium alone, anti-Ig, anti-Ig and PMA or anti-Ig and 4αPDD. After 8 hours incubation, the cells were harvested and subjected to a modified TUNEL analysis. […]. After PKC depletion, mature B cells were specifically susceptible to anti-Ig-mediated apoptosis.
In some cases, the frequency of apoptotic cells was quantitated using a modified TUNEL assay. Briefly, 1×10^6 cells were fixed in 2.5% formaldehyde in 1xPBS. The fixed cells were permeabilized in 0.2 ml 0.1% Triton/0.1% citrate for 2 minutes on ice. After washing, cells were incubated in 50 μl of nick translation reagent, which consists of 5 μl nick translation buffer (500 mM Tris, pH 7.5; 100 mM MgSO4; 1 mM DTT), 0.03 μl of fluorescein-dUTP (1 nmol/μl), 1 µl dTTP (0.7 nmol/μl), 1 μl each of dATP, dCTP, dGTP (1 nmol/μl) and 0.1 μl DNA polymerase (5 U/μl) and incubated for at least 1 hour at 37° C. Cells were then washed and analyzed by flow cytometry.

PKCβ = biological target: T1, PKCβ (Mus musculus, UniProt P68404); test: PKC depletion monitored by Western blot analysis; format: cell-based; settings: PDBu-treated B cells
T1 construct: endogenous in cells; host or cells: primary mature splenic B cells of mice
Experimental: (§1) Therefore, experiments were performed to determine if PKC-depleted mature B cells were susceptible to BCR-induced apoptosis. […] PKC depletion in PDBu- or mock-treated cultures was monitored by Western blot analysis. […] PKC levels in unstimulated immature and mature cells were quite similar, making it unlikely that differential regulation of PKC activity would occur at the level of expression of the individual isoenzyes.
(§2) For analysis of postnuclear extracts, 1×10^7 cells were lysed in 50 μl of Triton-X lysis buffer (0.1% Triton-X-100; 100 mM Tris, pH 8.0; 10.8 μg/ml aprotinin; 1.5 μg/ml each of leupeptin, pepstatin A, chymostatin, and antipain; 2 mM phenylmethylsulfonyl fluoride; 1 mM N-ethylmaleimide) on ice for 30 minutes. Lysates were microcentrifuged at 14,000× g at 4° C. for 10 minutes to remove the Triton-X insoluble fraction. Lysates from equivalent cell numbers were fractionated on SDS-PAGE gels and electroblotted onto Immobilon (Millipore, Bedford, Mass.). Blots were incubated overnight in Tris-buffered saline with Tween-TBST (10 mM Tris, pH 8.0; 137 mM NaCl; 0.05% Tween 20) plus 2% bovine serum albumin to block nonspecific binding. Membranes were washed twice with TBST and probed with the appropriate antibody solutions for 90 minutes, then washed 3 times in TBST, followed by secondary incubation with the appropriate horseradish peroxidase-conjugated reagents. Three washes with TBST were conducted before detection with an enhanced chemiluminescence system.

PKCδ = biological target: T2, PKCδ (Mus musculus, UniProt P28867); test: PKC depletion monitored by Western blot analysis; format: cell-based; settings: PDBu-treated B cells
T2 construct: endogenous in cells; host or cells: primary mature splenic B cells of mice
Experimental: as §1, §2

PKCε = biological target: T3, PKCε (Mus musculus, UniProt P16054); test: PKC depletion monitored by Western blot analysis; format: cell-based; settings: PDBu-treated B cells
T3 construct: endogenous in cells; host or cells: primary mature splenic B cells of mice
T3 sequence (P16054 1-737): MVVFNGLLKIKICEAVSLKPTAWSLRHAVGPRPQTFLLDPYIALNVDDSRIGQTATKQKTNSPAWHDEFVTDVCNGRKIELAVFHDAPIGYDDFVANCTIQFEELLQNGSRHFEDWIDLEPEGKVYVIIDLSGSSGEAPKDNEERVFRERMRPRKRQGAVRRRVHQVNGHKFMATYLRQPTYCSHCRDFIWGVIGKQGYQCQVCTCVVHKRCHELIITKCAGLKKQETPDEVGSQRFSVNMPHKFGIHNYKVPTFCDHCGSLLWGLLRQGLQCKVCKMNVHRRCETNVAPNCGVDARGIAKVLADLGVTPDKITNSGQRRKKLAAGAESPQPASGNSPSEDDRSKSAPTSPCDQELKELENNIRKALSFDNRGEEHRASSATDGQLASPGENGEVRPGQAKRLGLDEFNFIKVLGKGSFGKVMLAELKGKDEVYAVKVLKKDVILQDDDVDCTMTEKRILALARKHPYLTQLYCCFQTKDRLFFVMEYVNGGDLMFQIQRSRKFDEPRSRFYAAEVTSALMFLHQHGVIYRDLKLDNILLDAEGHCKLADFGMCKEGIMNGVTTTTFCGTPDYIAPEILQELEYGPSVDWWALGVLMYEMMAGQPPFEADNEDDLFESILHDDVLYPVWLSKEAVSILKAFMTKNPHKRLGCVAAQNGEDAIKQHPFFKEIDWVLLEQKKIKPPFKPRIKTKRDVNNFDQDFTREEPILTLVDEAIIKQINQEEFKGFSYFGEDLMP
Experimental: as §1, §2

[2] = test system: BCR-induced increase in intracellular calcium; test: Measurement of intracellular calcium in Fura-2-AM loaded B cells; format: cell-based, mouse
Experimental: Since PMA was capable of rescuing mature, PKC-depleted B cells from anti-Ig-induced apoptosis, experiments were performed to assess whether PMA was capable of desensitizing the BCR in these cells.
Purified B cells were washed in HBSS without phenol red and supplemented with 2% FCS. For loading, cells were resuspended in HBSS without phenol red and supplemented with 10% FCS. Fura-2 acetoxymethyl ester was added to a final concentration of 1 μM from a 1 mM stock made in DMSO. Cells were incubated in light tight tubes for 30 minutes at 30° C. with occasional inversion. Cells were then washed twice with HEBSS+2% FCS and resuspended at a concentration of 3.3×10^7/ml in HBSS+10% FCS. Fluorometric analysis of dyed cells was performed using a luminescence spectrometer. Excitation was at 340 nm and 380 nM with emission monitored at 510 nm. B cells were diluted to 2×10^6/ml in HBSS and equilibrated for 2 minutes, at which time a baseline spectrum was read. The cells were stimulated with rabbit anti-mouse IgM F(ab′)2 fragments (50 μg/ml) and the response measured. Cells were then lysed with Triton X-100 and Fmax and Fmin were measured by the chelation of extracellular calcium with the addition of EGTA. Calcium traces were calculated by the Intracellular Biochemistry Application (Perkin-Elmer) using these values.

T2 sequence (P28867 whole entry): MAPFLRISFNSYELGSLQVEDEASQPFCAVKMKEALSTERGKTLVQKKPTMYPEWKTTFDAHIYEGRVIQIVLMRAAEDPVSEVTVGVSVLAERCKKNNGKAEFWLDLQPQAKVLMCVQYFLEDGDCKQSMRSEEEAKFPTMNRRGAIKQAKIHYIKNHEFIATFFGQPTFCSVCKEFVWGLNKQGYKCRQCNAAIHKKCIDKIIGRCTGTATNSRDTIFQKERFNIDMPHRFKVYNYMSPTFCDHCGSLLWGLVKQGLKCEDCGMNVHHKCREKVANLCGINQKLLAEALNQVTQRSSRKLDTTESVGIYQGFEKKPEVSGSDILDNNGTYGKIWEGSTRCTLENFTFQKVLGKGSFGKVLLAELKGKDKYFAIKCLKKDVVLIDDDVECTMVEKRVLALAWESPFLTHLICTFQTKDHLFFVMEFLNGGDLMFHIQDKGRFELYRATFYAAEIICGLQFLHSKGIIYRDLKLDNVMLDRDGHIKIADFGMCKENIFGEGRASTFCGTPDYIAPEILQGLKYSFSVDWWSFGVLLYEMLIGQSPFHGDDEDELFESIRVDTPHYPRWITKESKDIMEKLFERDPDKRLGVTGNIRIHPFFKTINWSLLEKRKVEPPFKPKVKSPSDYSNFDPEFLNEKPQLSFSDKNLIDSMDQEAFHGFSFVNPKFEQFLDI
T1 sequence (P68404 whole entry): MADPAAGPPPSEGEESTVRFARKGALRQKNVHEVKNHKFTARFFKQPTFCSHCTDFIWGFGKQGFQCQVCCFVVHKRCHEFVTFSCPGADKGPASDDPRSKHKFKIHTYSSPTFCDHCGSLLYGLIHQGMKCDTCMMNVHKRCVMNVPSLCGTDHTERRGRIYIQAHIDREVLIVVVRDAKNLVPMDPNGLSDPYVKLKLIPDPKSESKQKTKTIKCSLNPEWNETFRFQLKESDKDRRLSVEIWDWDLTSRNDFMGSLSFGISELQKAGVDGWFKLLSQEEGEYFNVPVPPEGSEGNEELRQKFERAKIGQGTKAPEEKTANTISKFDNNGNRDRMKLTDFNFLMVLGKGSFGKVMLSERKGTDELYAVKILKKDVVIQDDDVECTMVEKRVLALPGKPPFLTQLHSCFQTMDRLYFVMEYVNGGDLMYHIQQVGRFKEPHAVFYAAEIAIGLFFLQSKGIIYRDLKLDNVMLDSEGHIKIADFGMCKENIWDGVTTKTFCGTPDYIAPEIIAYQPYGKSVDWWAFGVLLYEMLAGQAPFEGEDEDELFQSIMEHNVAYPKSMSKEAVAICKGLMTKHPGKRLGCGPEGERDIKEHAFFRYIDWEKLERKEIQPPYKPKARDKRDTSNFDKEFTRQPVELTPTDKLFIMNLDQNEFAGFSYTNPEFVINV

SMILES: CN(C)C[C@H]1CCn2c(c(C3=C(c4cn(C)c5ccccc45)C(=O)NC3=O)c3ccccc32)C1 [Ro-32-0432]
- induction of apoptosis (mature B cells): led to induction of apoptosis

SMILES: CCCCCCCCCC(=O)O[C@@H]1[C@@H](C)[C@@]2(O)[C@@H](C=C(CO)C[C@]3(O)C(=O)C(C)=C[C@@H]23)[C@@H]2C(C)(C)[C@]12OC(=O)CCCCCCCCC [4βPDD]
- protection (rescue) from anti-IgM-induced apoptosis (immature B cells): did not rescue cells

SMILES: CCCCCCCCCC(=O)O[C@@H]1[C@@H](C)[C@@]2(O)[C@@H](C=C(CO)C[C@@]3(O)C(=O)C(C)=C[C@@H]23)[C@@H]2C(C)(C)[C@]12OC(=O)CCCCCCCCC [4αPDD]
- protection (rescue) from anti-IgM-induced apoptosis (immature B cells): efficiently rescued cells

SMILES: CCCC(=O)O[C@@H]1[C@@H](C)[C@@]2(O)[C@@H](C=C(CO)C[C@]3(O)C(=O)C(C)=C[C@@H]23)[C@@H]2C(C)(C)[C@]12OC(=O)CCC [PDBu]
- number of apoptotic cells after anti-Ig ([1]; mature B cells cultured overnight with 100 ng/ml PDBu, washed, recultured 8 hours with anti-Ig): significant and striking increase in the number of apoptotic cells
- depletion of PKCβ (PKCβ): efficiently depleted
- depletion of PKCδ (PKCδ): also depleted, although not as efficiently
- depletion of PKCε (PKCε): also depleted, although not as efficiently

SMILES: CN(C)CCCn1cc(C2=C(c3c[nH]c4ccccc34)C(=O)NC2=O)c2ccccc21 [bisindoylmaleimide I]
- induction of apoptosis (mature B cells): led to induction of apoptosis

SMILES: CCCCCCCCCCCCCC(=O)O[C@@H]1[C@@H](C)[C@@]2(O)[C@@H](C=C(CO)C[C@]3(O)C(=O)C(C)=C[C@@H]23)[C@@H]2C(C)(C)[C@]12OC(C)=O [PMA]
- protection (rescue) from anti-IgM-induced apoptosis (immature B cells): significant protection from anti-IgM-induced apoptosis
- rescue from anti-Ig-induced apoptosis ([1]; PDBu-treated (PKC-depleted) mature B cells, anti-Ig and PMA, 8 hours): still capable of rescuing the cells from anti-Ig-induced apoptosis
- effect on BCR-induced calcium flux ([2]; PDBu-treated cells): did not alter the BCR-induced calcium flux
- effect on BCR-induced increase in intracellular calcium ([2]; mock-treated B cells): efficiently reduced the BCR-induced increase in intracellular calcium
